Experimental data taken from patent publication US7531629B2, “Tumor associated antigen peptides and use of same as anti-tumor vaccines” (Yeda Research and Development Co. Ltd., priority 1998, dated 2009).

Legend:
RMA-S-HhD cells [1] = assay: CTL from peptide-immunized HhD mice against loaded RMA-S-HhD target cells; assay type: in vivo; conditions: for lymphocyte response specifically lysing CRIPTO-1 peptide-loaded target cells: HhD mice immunized with CRIPTO-1 peptide pools, FIGS. 24a-c; for lysis of RMA-S-HhD target cells loaded with MUC-1 peptide: immunization with a pool of the MUC-1-derived synthetic peptides; for ability to evoke specific CTL responses (lysis of peptide-loaded target cells): additional Uroplakin Ib, II, III peptides, three weekly immunizations, FIGS. 23a-e; for lysis of RMA-S-HhD targets loaded with homologous BA-46 peptide: CTL from HhD mice immunized with BA-46 peptides
Protocol: (§1) Vaccination: Mice were immunized intraperitonealy three times at 7-day intervals, with 2×10^6 irradiated (5,000 rad) tumor cells, or with peptide-loaded RMA-S-HhD-B7.1 transfectants. Peptide loading of RMA-S-HhD-B7.1 cells was performed as follows: After washing the cells 3 times in PBS, the surface expression of HhD monochins was stabilized by a 4 hours culture at 26° C. Synthetic peptides, or peptide extracts were added to 10×10^6 cells in 1 ml of opti-MEM (Gibco) medium to a concentration of 100 μM or 1 mM, respectively. The cells were incubated at 26° C. and for additional 3 hours at 37° C. Peptide loaded RMA-S-HhDσ-σB7.1 cells were irradiated (5000 rad), washed, resuspended in PBS and injected into mice. In mixed synthetic vaccines, RMA-S-HhD-B7.1 cells were loaded separately with each peptide and pooled before vaccination.
(§2) In vitro cytotoxicity assays: Mice were immunized intraperitonealy three times at 7-day intervals, with 2×10^6 irradiated (5,000 rad) tumor cells, or with peptide-loaded RMA-S-HhD-B7.1 transfectants. Spleens were removed on day 10 after the last immunization and splenocytes were restimulated in vitro with either irradiated tumor cells (for mice immunized with tumor cells) or with lymphocytes pulsed with 100 μM synthetic peptides or 1 mM patients-derived extract in opti-MEM (Gibco) medium. Restimulated lymphocytes were maintained in RPMI 1640 medium containing 10% FCS, 1 mM glutamine, combined antibiotics, 1 mM sodium pyruvate, 10 mM HEPES, pH 7.4, 5×10^−5 M β-mercaptoethanol, and 1% nonessential amino acids (RPMI-HEPES medium) for 5 days. Viable lymphocytes (effector cells), were separated by lymphocyte-M (Cedarlane, Ontario, Canada) centrifugation, resuspended in RPMI-HEPES medium, and admixed at different ratios with 5×10^3 peptide loaded RMA-S-HhD cells, previously loaded with different peptides (see vaccination). CTL assays were performed in U-shaped microtiter wells, at 37° C., 5% CO2 for 5 hours. Cultures were terminated by centrifugation at 1,000 rpm for 10 minutes at 4° C. A total of 100 μl of the supernatants was mixed with scintillation fluids and counted in a beta counter. […] Spontaneous release was determined by incubation of 100 μl-labeled target cells with 100 μl of medium. Maximal release was determined by solubilization of target cells in 100 μl 0.1 M NaOH.
CTL induced in HhD mice recognize the same UP II peptides as human PBL: The immunogenicity of Uroplakin homologue peptides was also evaluated in a mouse model, in which the murine MHC class I genes are not expressed (D^b−/−, β2-microglobulin −/−, double knockout) and which is transgenic for a HLA-A2 and human β2-microglobulin monochain (HhD mice). The advantage of a HLA-A2 transgenic mouse model is that CTL epitopes can be detected more easily and reproducibly, without lengthy and repeated in vitro stimulations. The murine MHC knockout mice used herein has the additional advantage that their CTL repertoire is only HLA-A2 restricted and the CTL response against human tumor extract or human cell lines is not masked by a potential xenogeneic response. HhD mice were immunized with the 7 Uroplakin II homologue peptides or with the same TCC peptide extract used for stimulation of patient's PBL. Lymphocytes were obtained from the spleens of these mice and restimulated in vitro once with the corresponding peptides. […]

MDA-MB-157-HhD cells = assay: Lysis of MDA-MB-157-HhD breast carcinoma cells by CTL from immunized HhD mice; assay type: in vitro; conditions: CTL from HhD mice immunized with the named substance
RMA-S-HhD cells [2] = assay: CTL from HhD mice immunized with tumor extracted peptides or DU145-HhD cells against loaded RMA-S-HhD target cells; assay type: cell-based; conditions: for recognition and lysis of peptide loaded targets by anti-tumor extract CTL: CTL against breast tumor peptide extracts, E:T 50:1
Protocol: as §1
as §2, with “Cultures were terminated by centrifugation at 1,000 rpm for 10 minutes at 4° C.” left out
CTL induced in HhD mice recognize the same UP II peptides as human PBL: The immunogenicity of Uroplakin homologue peptides was also evaluated in a mouse model, in which the murine MHC class I genes are not expressed (D^b−/−, β2-microglobulin −/−, double knockout) and which is transgenic for a HLA-A2 and human β2-microglobulin monochain (HhD mice). The advantage of a HLA-A2 transgenic mouse model is that CTL epitopes can be detected more easily and reproducibly, without lengthy and repeated in vitro stimulations. […]

[3] = MHC stabilization assay: peptide binding to HhD on RMA-S-HhD cells, indirect FACS; design: species or system human; conditions: peptide loaded RMA-S-HhD cells
Protocol: Measurement of peptide binding by stabilization of cell surface MHC: Peptide binding to HhD was measured by stabilization of HhD on RMA-S transfectants, using an indirect FACS assay as follows: 5×10^5 peptide loaded TAP-2 deficient RMA-S-HhD cells (see vaccination), were incubated with anti HLA monoclonal antibodies for 30 minutes at 4° C. After washing the cells with PBS-0.5%, BSA+0.1%, sodium azide, the second antibody, goat anti mouse-FITC (Jackson Lab.), was applied for 30 minutes at 4° C. Following washing, the amount of bound antibodies was detected by FACSscan […].
Mouse monoclonal antibodies. B-9-12, w6/32 (anti HLA A, B, C) and B.B7.2 (anti HLA-A2.1) were used for analyses.
Cytotoxic activity of human peripheral blood lymphocytes (PBL) against target cells pulsed with Uroplakin II peptide homologues: The human UP II amino acid sequence was screened for potential HLA-A2 binding, 9 amino acids peptides by a HLA binding motif program. We chose that particular HLA allele because it is present in 45% of the population. Seven 9-mer peptides, which were predicted to bind with high affinity to HLA-A2 were selected and synthesized (Table 1). The binding of these peptides to HLA-A2 was tested by an MHC stabilization assay utilizing TAP negative cells, which can present exogeneously bound peptides. The RMA-S cells (30) transfected by the HhD construct were loaded with various concentrations of UP II peptides and then reacted with anti-HLA antibody. High affinity binding was shown for all 7 peptides by FACS analyses (FIG. 1).

prostate cancer = conditions: DC based vaccine, 51 prostate cancer patients, HLA-A2; cited from earlier work
T2 cells = assay: CTL assay with patients' PBL resensitized with pooled TCC extracted peptides; assay type: cell-based, human; conditions: CTL from TCC patients' PBL

With “KMVRFSYSV (listed as Homo sapiens) [Cripto-1/C10]” the “lymphocyte response specifically lysing CRIPTO-1 peptide-loaded target cells” value (RMA-S-HhD cells [1]) was “can elicit lymphocyte response which specifically lyses CRIPTO-1 peptide-loaded target cells”.
For “MLVGICLSI (listed as Homo sapiens) [Cripto-1/C8]”, the “lymphocyte response specifically lysing CRIPTO-1 peptide-loaded target cells” value (RMA-S-HhD cells [1]) was “can elicit lymphocyte response which specifically lyses CRIPTO-1 peptide-loaded target cells”.
In the case of “LLLTVLTVV (listed as Homo sapiens) [MUC-1/D6]”, the “lysis of breast carcinoma line HhD transfectant (MDA-MB-157-HhD) relative to parental cells” value (MDA-MB-157-HhD cells) is reported as “Preferential lysis”, the “recognition and lysis of peptide loaded targets by anti-tumor extract CTL” value (shortened to “recognition and lysis”) (RMA-S-HhD cells [2]) is reported as “recognized and lysed” and the “lysis of RMA-S-HhD target cells loaded with MUC-1 peptide” value (shortened to “lysis of RMA-S-HhD target cells loaded”) (RMA-S-HhD cells [1]) is reported as 38%. The “peptide binding to HhD, stabilization of cell surface HhD (FACS)” value (from here on “peptide binding to HhD, stabilization”) [3] was “higher binding affinity”.
In the case of “VLLSVAMFL (listed as Homo sapiens) [Uroplakin II/8]”, the “ability to evoke specific CTL responses (lysis of peptide-loaded target cells)” value (“ability to evoke specific CTL responses” below) (RMA-S-HhD cells [1]) is reported as “could elicit lymphocytes which specifically lysed target cells”.
For “FLSFHISNL (listed as Homo sapiens) [MUC-1/F6]”, the “lysis of RMA-S-HhD target cells loaded” value (RMA-S-HhD cells [1]) was 15%.
In the case of “AILCWTFWV (listed as Homo sapiens) [Uroplakin Ib/B1]”, the “ability to evoke specific CTL responses” value (RMA-S-HhD cells [1]) is reported as “could elicit lymphocytes which specifically lysed target cells”.
With “KILLAYFIL (listed as Homo sapiens) [Uroplakin Ib/B6]” the “ability to evoke specific CTL responses” value (RMA-S-HhD cells [1]) was “could elicit lymphocytes which specifically lysed target cells”.
With “MLAGICLSI (listed as Homo sapiens) [Cripto-1/C12]” the “lymphocyte response specifically lysing CRIPTO-1 peptide-loaded target cells” value (RMA-S-HhD cells [1]) was “can elicit lymphocyte response which specifically lyses CRIPTO-1 peptide-loaded target cells”.
With “FILMFIVYA (listed as Homo sapiens) [Uroplakin Ib/B2]” the “ability to evoke specific CTL responses” value (RMA-S-HhD cells [1]) was “could elicit lymphocytes which specifically lysed target cells”.
For “ALFDIESKV (listed as Homo sapiens) [PSMA5]”, the “patients responding by decreased levels of serum PSA” value (prostate cancer) is given as 7 patients.
With “FLLVGFAGA (listed as Homo sapiens) [Uroplakin III/3.3]” the “ability to evoke specific CTL responses” value (RMA-S-HhD cells [1]) was “could elicit lymphocytes which specifically lysed target cells”.
For “NLFETPVEA (listed as Homo sapiens) [BA-46-6]”, the “lysis of RMA-S-HhD targets loaded with homologous BA-46 peptide” value (“lysis … with homologous BA-46 peptide” for short) (RMA-S-HhD cells [1]) was 40%.
With “ILNAYLVRV (listed as Homo sapiens) [Uroplakin III/3.2]” the “ability to evoke specific CTL responses” value (RMA-S-HhD cells [1]) was “could elicit lymphocytes which specifically lysed target cells”.
With “GLQHWVPEL (listed as Homo sapiens) [BA-46-7]” the “lysis … with homologous BA-46 peptide” value (RMA-S-HhD cells [1]) was 60%.
In the case of “YMDGTMSQV [Tyrosinase, reference compound]”, the “specific lysis of loaded RMA-S-HhD cells” value (RMA-S-HhD cells [2]; CTL from HhD mice immunized with breast tumor extract peptide, E:T 100:1) is reported as “No lysis”, the “lysis of T2 cells loaded with nonspecific peptides” value (T2 cells) is reported as “no lysis” and the “lysis of loaded RMA-S-HhD cells, lytic units (LU30)” value (RMA-S-HhD cells [1]; CTL from HhD mice immunized with human Uroplakin II peptides 1-7, substance loaded on targets) is reported as “no lysis”. For the same sequence, the “ability to evoke specific CTL responses” value (RMA-S-HhD cells [1]) was “no significant lysis” and the “lysis of targets loaded with nonspecific peptides” value (RMA-S-HhD cells [1]; overall, all immunized groups of Example 2) was “no lysis”.
With “ALASTAPPV (listed as Homo sapiens) [MUC-1/E6]” the “lysis of breast carcinoma line HhD transfectant (MDA-MB-157-HhD) relative to parental cells” value (MDA-MB-157-HhD cells) was “Preferential lysis”, the “recognition and lysis” value (RMA-S-HhD cells [2]) was “recognized and lysed” and the “lysis of RMA-S-HhD target cells loaded” value (RMA-S-HhD cells [1]) was 15%. For the same sequence, the “peptide binding to HhD, stabilization” value [3] was “higher binding affinity”.
With “KMARFSYSV (listed as Homo sapiens) [Cripto-1/C1]” the “lymphocyte response specifically lysing CRIPTO-1 peptide-loaded target cells” value (RMA-S-HhD cells [1]) was “can elicit lymphocyte response which specifically lyses CRIPTO-1 peptide-loaded target cells”.
With “ILCWTFWVL (listed as Homo sapiens) [Uroplakin Ib/B5]” the “ability to evoke specific CTL responses” value (RMA-S-HhD cells [1]) was “could elicit lymphocytes which specifically lysed target cells”.
For “RLLAALCGA (listed as Homo sapiens) [BA-46-9]”, the “lysis … with homologous BA-46 peptide” value (RMA-S-HhD cells [1]) was 40%.
In the case of “NLTISDVSV (listed as Homo sapiens) [MUC-1/A7]”, the “lysis of breast carcinoma line HhD transfectant (MDA-MB-157-HhD) relative to parental cells” value (MDA-MB-157-HhD cells) is reported as “Preferential lysis”, the “recognition and lysis” value (RMA-S-HhD cells [2]) is reported as “recognized and lysed” and the “lysis of RMA-S-HhD target cells loaded” value (RMA-S-HhD cells [1]) is reported as 30%. For the same sequence, the “peptide binding to HhD, stabilization” value [3] was “higher binding affinity”.
